Source: article PMC4769088, “Antifungal Activity and Action Mechanism of Histatin 5-Halocidin Hybrid Peptides against Candida ssp” (PLoS ONE, 2016)
Where two headings read alike, the source gives them in different places. Where a SMILES comes first, the peptide text is derived from it. Bridges are numbered along the chain shown (N, C = ends). Roman numbers before positions name the chains, in order. Where no end group is shown, it is not given here.

Assays:
[1] = tested on: C.albicans CCARM 14020; assay type: cell-based, Candida albicans
Protocol: (§1) To determine the candidacidal activity of the peptides, we used Candida strains obtained from the Culture collection of antimicrobial resistant microbes at Seoul Women’s University in Korea. These included three Candida albicans (CCARM 14020, 14021, 14022), Candida guillermondi and Candida tropicalis. In addition, Candida albicans SC5413 was kindly provided by Dr Jeong-Yoon Kim at the Department of Microbiology & Molecular Biology, Chungnam University, Korea. Yeast were cultured overnight at 30°C in 10 ml of yeast extract-peptone-dextrose (YPD) broth (Qbiogene), then diluted in 10 ml of YPD broth to OD600 = 0.2 and grown for an additional 4 h with shaking at 30°C until OD600 = 0.8 in order to obtain mid-log phase cultures. The peptides (Hst 5, P113, HHP1, HHP2, PH1, PH2, di-PH1, di-PH2, WP1, di-WP2, di-15Hc and di-18Hc) in this study were synthesized by using standard solid-phase synthesis protocols and were purified by reversed-phase high-performance liquid chromatography at Anygen Inc. (Korea). FITC-labeled peptides (F-Hst5, F-P113, F-HHP1, F-di-PH2, F-di-WP2 and F-di-18Hc) were also synthesized by 6-aminohexnoic acid linker at Anygen (Korea) for confocal experiments.
(§2) The candidacidal activities of the peptides were tested by using standard microdilution plate assays, radial diffusion assays and broth dilution assay slightly modified from the procedure recommended by the National Committee for Clinical Laboratory Standards. For the candidacidal assays, C. albicans cells were grown in YPD medium and washed twice with 10 mM sodium phosphate buffer (NaPB; Na2HPO4, NaH2PO4, pH 7.4). The cells (1 x 10^6) were then mixed with different concentrations of peptides and incubated at 30°C with constant shaking for 60 min. For energy depletion experiments, cells were pre-incubated with 10 mM NaPB containing 5 mM NaN3 at 30°C for 60 min before the addition of peptides. The cell suspensions were diluted in 10 mM NaPB and aliquots of 500 cells were spread onto YPD agar plates then incubated for 24 h at 30°C to visualize the surviving colonies. Cell survival was expressed as a percentage of that for the control, and the loss of viability was calculated as [1 x (number of colonies from peptide-treated cells/number of colonies from control cells)] x 100. Candidacidal assays were performed in triplicate. For the radial diffusion assay, C. albicans cells were grown in YPD medium overnight and washed twice with 10 mM NaPB. Washed yeast-phase C. albicans cells (1 x 10^6 CFU) were trapped in thin underlay gels containing 9 mM sodium phosphate, 1 mM sodium citrate buffer, 1% (wt/vol) agarose (A6013; Sigma), and 0.3 mg of Sabouraud dextrose broth (Difco)/ml. After incubation at 37°C for 3 h, a 10 ml overlay gel of 1% agarose and 6% Sabouraud dextrose broth was poured on the underlay gel and then the plates were incubated overnight at 37°C. The clear-zone diameters were measured to the nearest 0.1 mm and graphed against the peptide concentration. Zone diameters were expressed in units (0.1 mm = 1 unit). For the broth dilution assay, the Candida strains were cultured in LYM broth for 18 h at 30°C. The numbers of yeasts were counted using a hemocytometer. Stock peptide solutions were prepared to a concentration of 320 μg/ml in distilled water, and were then serially diluted twofold, to 5 μg/ml. 100 μl aliquots of the diluted culture media containing candida cells (1 x 10^3) were dispensed into the wells of 96-well polypropylene microtiter plates (Costar 3879, Corning, NY), to which peptide solution (11 μl) was then added. In the experiments conducted to assess the candidacidal activity of peptides in the presence of salt, we used LYM supplemented with 150 mM NaCl for the culture medium, which was mixed with the peptide solution. The antifungal activities were evaluated after 24 h of incubation at 30°C by the observation of visible turbidity the wells. […]

[2] = tested on: C.albicans CCARM 14021; assay type: cell-based, Candida albicans
Protocol: as §1, §2

[3] = tested on: C.albicans CCARM 14022; assay type: cell-based, Candida albicans
Protocol: as §1, §2

[4] = tested on: C.albicans SC5413; assay type: cell-based, Candida albicans
Protocol: as §1, §2

[5] = CD spectra, secondary structure analysis; assay type: physicochemical; details: 200 μg/ml peptide
Protocol: Circular dichroism (CD) spectra of the six peptides (Hst5, P113, HHP1, di-PH2, di-WP2 and di-18Hc) were measured with a J-715 spectropolarimeter (Jasco, Tokyo, Japan). Two hundred micrograms of each peptide was resuspended in 1 ml of 10 mM NaPB (pH 7.0) (i) without other additives, (ii) with 10% laminarin (LAM) or (iii) with 50% trifluoroethanol (TFE) (a known helix-inducing solvent). The spectra were measured at room temperature in a 1-mm-path-length quartz cell. The scanning speed was 10 nm/min (180 to 260 nm), and each spectrum was the average of five scans.
Fig 3 CD spectra of Hst5, P113, di-18Hc and hybrid peptides. This study was performed with one concentration (200 μg/ml) of each peptide in various buffers: 10 mM sodium phosphate buffer (Red line), 50% TFE in phosphate buffer (green line) and 20 mg of laminarin in phosphate buffer.

[6] = tested on: C. tropicalis; assay: Broth dilution assay (MIC); assay type: cell-based, Candida tropicalis; details: 150 mM NaCl
Protocol: as §1
The candidacidal activities of the peptides were tested by using standard microdilution plate assays, radial diffusion assays and broth dilution assay slightly modified from the procedure recommended by the National Committee for Clinical Laboratory Standards. For the candidacidal assays, C. albicans cells were grown in YPD medium and washed twice with 10 mM sodium phosphate buffer (NaPB; Na2HPO4, NaH2PO4, pH 7.4). The cells (1 x 10^6) were then mixed with different concentrations of peptides and incubated at 30°C with constant shaking for 60 min. For energy depletion experiments, cells were pre-incubated with 10 mM NaPB containing 5 mM NaN3 at 30°C for 60 min before the addition of peptides. The cell suspensions were diluted in 10 mM NaPB and aliquots of 500 cells were spread onto YPD agar plates then incubated for 24 h at 30°C to visualize the surviving colonies. Cell survival was expressed as a percentage of that for the control, and the loss of viability was calculated as [1 x (number of colonies from peptide-treated cells/number of colonies from control cells)] x 100. Candidacidal assays were performed in triplicate. For the radial diffusion assay, C. albicans cells were grown in YPD medium overnight and washed twice with 10 mM NaPB. […] The clear-zone diameters were measured to the nearest 0.1 mm and graphed against the peptide concentration. […] The numbers of yeasts were counted using a hemocytometer. […] The antifungal activities were evaluated after 24 h of incubation at 30°C by the observation of visible turbidity the wells. […]

[7] = NaCl 150 mM, LYM supplemented with 150 mM NaCl, 24 h at 30°C
[8] = solvent 10mM NaPB (pH 7.0), room temperature, average of five scans

| Molecule | MICs ([1]; CCARM 14020, 24 h) | MICs [1, 7] | MICs ([2]; CCARM 14021, 24 h) | MICs [2, 7] | MICs ([3]; CCARM 14022, 24 h) | MICs [3, 7] | MICs [4, 7] | MICs ([4]; SC5413, 24 h) | Secondary structure (%) Beta ([5]; solvent 10mM NaPB (pH 7.0)) | Secondary structure (%) Random ([5]; solvent 10mM NaPB (pH 7.0)) | Secondary structure (%) Turn ([5]; solvent 10mM NaPB (pH 7.0)) | Secondary structure (%) Helix [5, 8] | Secondary structure (%) Beta ([5]; solvent 50% TFE in 10 mM NaPB) | Secondary structure (%) Helix ([5]; solvent 50% TFE in 10 mM NaPB) | Secondary structure (%) Random ([5]; solvent 50% TFE in 10 mM NaPB) | Secondary structure (%) Turn ([5]; solvent 50% TFE in 10 mM NaPB) | killing activities against C. tropicalis in 150 mM NaCl salt [6] |
| --- | --- | --- | --- | --- | --- | --- | --- | --- | --- | --- | --- | --- | --- | --- | --- | --- | --- |
| C[C@H](NC(=O)[C@H](Cc1c[nH]cn1)NC(=O)[C@H](CO)NC(=O)[C@@H](N)CC(=O)O)C(=O)N[C@@H](CCCCN)C(=O)N[C@@H](CCCNC(=N)N)C(=O)N[C@@H](Cc1c[nH]cn1)C(=O)N[C@@H](Cc1c[nH]cn1)C(=O)NCC(=O)N[C@@H](Cc1ccc(O)cc1)C(=O)N[C@@H](CCCCN)C(=O)N[C@@H](CCCNC(=N)N)C(=O)N[C@@H](CCCCN)C(=O)N[C@@H](Cc1ccccc1)C(=O)N[C@@H](Cc1c[nH]cn1)C(=O)N[C@@H](CCC(=O)O)C(=O)N[C@@H](CCCCN)C(=O)N[C@@H](Cc1c[nH]cn1)C(=O)N[C@@H](Cc1c[nH]cn1)C(=O)N[C@@H](CO)C(=O)N[C@@H](Cc1c[nH]cn1)C(=O)N[C@@H](CCCNC(=N)N)C(=O)NCC(=O)N[C@@H](Cc1ccc(O)cc1)C(=O)O [Hst 5, Histatin 5] | 8 to 16 µg/mL | 32< μg/ml | 4 to 8 µg/mL | 32< μg/ml | 8 to 16 µg/mL | 32< μg/ml | 32< μg/ml | 8 to 16 µg/mL | 19.3% | 74.5% | 6.2% | 0% | 7.3% | 76.2% | 0.0% | 16.4% |  |
| CC(C)C[C@H](NC(=O)CNC(=O)[C@H](Cc1c[nH]cn1)NC(=O)[C@H](Cc1c[nH]cn1)NC(=O)[C@H](CC(C)C)NC(=O)[C@H](CC(C)C)NC(=O)[C@H](C)NC(=O)[C@H](CC(N)=O)NC(=O)[C@H](CC(C)C)NC(=O)[C@@H](N)Cc1c[nH]c2ccccc12)C(=O)N[C@@H](CC(N)=O)C(=O)N[C@@H](CSSC[C@H](NC(=O)[C@H](CC(N)=O)NC(=O)[C@H](CC(C)C)NC(=O)CNC(=O)[C@H](Cc1c[nH]cn1)NC(=O)[C@H](Cc1c[nH]cn1)NC(=O)[C@H](CC(C)C)NC(=O)[C@H](CC(C)C)NC(=O)[C@H](C)NC(=O)[C@H](CC(N)=O)NC(=O)[C@H](CC(C)C)NC(=O)[C@@H](N)Cc1c[nH]c2ccccc12)C(=O)N[C@@H](C)C(=O)N[C@@H](CCCCN)C(=O)NCC(=O)N[C@H](C(=O)N[C@@H](CC(C)C)C(=O)N[C@@H](C)C(N)=O)C(C)C)C(=O)N[C@@H](C)C(=O)N[C@@H](CCCCN)C(=O)NCC(=O)N[C@H](C(=O)N[C@@H](CC(C)C)C(=O)N[C@@H](C)C(N)=O)C(C)C [di-18Hc, reference compound] (I: H-WLNALLHHGLNCAKGVLA-NH2 / II: H-WLNALLHHGLNCAKGVLA-NH2; disulfide I:12-II:12 (inferred); N-terminus assumed) |  |  |  |  |  |  |  |  | 29.2% | 61.5% | 5.5% | 3.8% | 10.4% | 47.0% | 28.4% | 14.2% | retained |
| CC(C)C[C@H](NC(=O)[C@@H](N)Cc1c[nH]c2ccccc12)C(=O)N[C@@H](CC(N)=O)C(=O)N[C@@H](C)C(=O)N[C@@H](CCCCN)C(=O)N[C@@H](CCCNC(=N)N)C(=O)N[C@@H](Cc1c[nH]cn1)C(=O)N[C@@H](Cc1c[nH]cn1)C(=O)NCC(=O)N[C@@H](Cc1ccc(O)cc1)C(=O)N[C@@H](CCCCN)C(=O)N[C@@H](CSSC[C@H](NC(=O)[C@H](CCCCN)NC(=O)[C@H](Cc1ccc(O)cc1)NC(=O)CNC(=O)[C@H](Cc1c[nH]cn1)NC(=O)[C@H](Cc1c[nH]cn1)NC(=O)[C@H](CCCNC(=N)N)NC(=O)[C@H](CCCCN)NC(=O)[C@H](C)NC(=O)[C@H](CC(N)=O)NC(=O)[C@H](CC(C)C)NC(=O)[C@@H](N)Cc1c[nH]c2ccccc12)C(=O)N[C@@H](CCCCN)C(=O)N[C@@H](Cc1ccccc1)C(=O)N[C@@H](Cc1c[nH]cn1)C(N)=O)C(=O)N[C@@H](CCCCN)C(=O)N[C@@H](Cc1ccccc1)C(=O)N[C@@H](Cc1c[nH]cn1)C(N)=O [di-WP2] (I: H-WLNAKRHHGYKCKFH-NH2 / II: H-WLNAKRHHGYKCKFH-NH2; disulfide I:12-II:12 (inferred); N-terminus assumed) |  |  |  |  |  |  |  |  | 22.0% | 63.2% | 14.8% | 0.0% | 25.7% | 7.8% | 52.5% | 13.9% | retained |
| AKRHHGYKRKFH-NH2 [P113] | 4 to 8 µg/mL | 32< μg/ml | 4 to 8 µg/mL | 32< μg/ml | 8 to 16 µg/mL | 32< μg/ml | 32< μg/ml | 4 to 8 µg/mL | 0.0% | 95.3% | 4.7% | 0.0% | 34.8% | 4.4% | 60.8% | 0.0% |  |
